These results are taken from patent publication EP1081144A2, “Process for making 5-lipoxygenase inhibitors having varied heterocyclic ring systems” (Pfizer Products Inc., priority 1999, dated 2001).

Molecules are shown by their SMILES. ≈ marks a conversion by molar mass, not a printed value.

The series is described as follows: Solubility of the reaction product in acetic acid and in acetic acid/water. It is filed as physicochemical. As to conditions: organic solvent or mixture. How it is done:
The reaction mixture was cooled to 22°C and granulated for 1 hour. The resulting slurry was then vacuum filtered and the filter cake was washed twice with water (100 ml). The filter cake (75 g) was placed in a 50°C vacuum drier with a nitrogen bleed, after which 23.04 g of solid product were obtained for a yield of 74.0%.

Consider `NC(=O)C1(c2cccc(Sc3ccc(F)cc3)c2)CCOCC1` [Example 3, tetrahydro-4-[3-(4-fluorophenyl)thio]phenyl-2H-pyran-4-carboxamide], for which the solubility (in general, the concentration that dissolves in the medium under given conditions) is, setting by setting: (in a 2:1 mixture of acetic acid and water) around 4.5 mg/mL (≈ 13.6 mM); (in acetic acid at room temperature) around 62 mg/mL (≈ 187 mM).
